Patent US20150056195A1, “COMPOSITIONS AND METHODS FOR INIHIBITING TUMORIGENICITY OF SENESCENT CANCER CELLS INDUCED BY CHEMOTHERAPY” (INSERM (INSTITUT NATIONAL DE LA SANTE ET DE LA RECHERCHE …, priority 2013, published 2015)

Legend:
[1] = tested on: melanoma cell lines; experiment: Western blot of MITF, ECAD, FN1, NANOG, OCT4; type: cell-based, human; details: three melanoma cell lines exposed 48 hrs to secretome of cells rendered senescent by the drug (temozolomide 900 nM, fotemustine 40 nM)
Procedure: (§1) Western blots were carried out as previously described^48. Briefly, cell lysates (30 μg) were separated by SDS-PAGE, transferred on to a PVDF membrane and then exposed to the appropriate primary and HRP-linked secondary antibodies. Proteins were visualized with the ECL system (Amersham). The western blots shown are representative of at least 3 independent experiments.

[2] = tested on: 501mel melanoma cells; experiment: qRT-PCR of mesenchymal, stemness and MITF transcripts; type: cell-based, human; details: IL6 20 ng/ml, mRNA and protein levels
Procedure: mRNA isolation was performed with Trizol (Invitrogen), according to standard procedure. QRT-PCR was carried out with SYBR® Green I and Multiscribe Reverse Transcriptase (Promega) and monitored by an ABI Prism 7900 Sequence Detection System (Applied Biosystems, Foster City, Calif.). Detection of SB34 gene was used to normalize the results. Primer sequences for each cDNA were designed using either Primer Express Software (Applied Biosystems) or qPrimer depot (http://primerdepot.nci.nih.gov) and are available upon request.

[3] = tested on: 501mel cells; experiment: Flow cytometry of MITF content (low-MITF population); type: cell-based, human; details: IL6 20 ng/ml, 48 hrs; control 2
[4] = tested on: 501mel cells; experiment: CFSE labeling, number of cell divisions by FACS; type: cell-based, human; details: IL6 20 ng/ml, 72 hrs; control 5.65
Procedure: For the in vitro CFSE assay, cells were labeled with 2 μmol/l of CFSE according to the manufacturer's protocol (Invitrogen), then plated and treated with the secretome of control (SCMC) or senescent melanoma cells (SSMC) or recombinant IL6 (20 ng/ml). Cells were detached and analyzed by flow cytometry using MACSQuant (Miltenyi biotech). Cells were exposed to control (Cont) or senescent secretome (SSMC). Seventy-two hours later, cells were detached in phosphate-buffered saline/EDTA 2 mM and stained with DAPI to exclude dead cells. Fluorescence was measured by using the FL1/FL2 channels of a MACSQuant. Data were analyzed with MACSQuant software (Miltenyi biotech).

[5] = tested on: STAT3; experiment: Western blot of STAT3, ERK and AKT signaling; type: cell-based, human; details: 501mel; for AKT and ERK phosphorylation / STAT3 activation (tyr705-phosphorylation): IL6 20 ng/ml or CCL2 200 ng/ml; for STAT3 activation (tyr705-phosphorylation): time course
Procedure: as §1

[6] = tested on: 501mel melanoma cells; experiment: Xenograft tumor model in athymic nude mice; type: in vivo; details: cells exposed in vitro 48 hrs or transfected, then 4x10^6 cells/mouse subcutaneously
Procedure: Mice were randomly divided into 3 groups of 6 mice. 501mel melanoma cells were transfected with control (siC) or STAT3 (siSTAT3) siRNA and were exposed in vitro to the secretome of senescent melanoma cells (SSMC) or to recombinant CCL2 (200 ng/ml) or IL6 (20 ng/ml) for 48 hrs, washed twice with phosphate-buffered saline and then inoculated subcutaneously (4×10^6 cells/mouse) into 6-week-old female immune-deficient Athymic Nude FOXN1^nu mice (Harlan Laboratory). The growth tumor curves were determined by measuring the tumor volume using the equation V=(L×W2)/2. Mice were killed by CO2 inhalation and tumors were taken.

[7] = tested on: melanoma cell lines; experiment: Cell counting and cell death; type: cell-based, human; details: 501mel and other melanoma cells

Q: Which “E-Cadherin and MITF protein level” value [1] does the source give for `CCOP(=O)(OCC)C(C)NC(=O)N(CCCl)N=O` (stereo not drawn) [fotemustine] here?
A: decrease

Q: And the “expression of Fibronectin1” value [1]?
A: increased expression

Q: “IL6: recombinant human IL6 from R&D Systems, used at 20 ng/ml” was tested. Which “NANOG and OCT4 expression” value [2] did it give?
A: enhanced

Q: And the “amount of MITF” value [2]?
A: reduced

Q: And the low-MITF population [3]?
A: 7%

Q: And the “percentage of cells that underwent 0/1 division” value [4]?
A: 18.3%

Q: And the “time to rapid and robust STAT3 phosphorylation” value ([5]; IL6 20 ng/ml)?
A: ≤ 5 min

Q: What about the “AKT and ERK phosphorylation” value [5] of the same molecule?
A: no or very weak stimulation

Q: And the “STAT3 activation (tyr705-phosphorylation)” value [5]?
A: dramatic increase

Q: What about the “tumor formation of xenografted 501mel cells” value [6] of the same molecule?
A: gave rise to tumors

Q: `CN[C@@H]1C[C@H]2O[C@@](C)([C@@H]1OC)n1c3ccccc3c3c4c(c5c6ccccc6n2c5c31)C(=O)NC4` [staurosporine] was tested. Which cell death [7] did it give?
A: positive control

Q: With “CCL2: recombinant human CCL2 from R&D Systems, used at 200 ng/ml” as the molecule, how does the “time of maximum STAT3 phosphorylation” value ([5]; CCL2 200 ng/ml) read?
A: 60 min

Q: What about the “AKT and ERK phosphorylation” value [5] of the same molecule?
A: no or very weak stimulation

Q: And the “STAT3 activation (tyr705-phosphorylation)” value [5]?
A: dramatic increase

Q: What about the “tumor formation of xenografted 501mel cells” value [6] of the same molecule?
A: gave rise to tumors
